The values that follow come from article PMC7561186, “Rational design of balanced dual-targeting antibiotics with limited resistance” (PLoS Biology, 2020).

For experiment [1] the following is noted: cited from earlier work.
Experiment [2] addresses T1, S. aureus topoisomerase IV (Staphylococcus aureus, UniProt P0C1S7).
T1 construct: purchased Inspiralis Ltd., Norwich, UK
The experiment in a line: S. aureus topoisomerase IV gel-based assay. As to conditions: quadruplicates. Format: biochemical.

Experiment [3] concerns S. aureus ATCC 700699 VISA. Nature of the experiment: Time-dependent killing. The class given is cell-based. The settings on record: for Time-kill bacterial count: 10xMIC; for Colony numbers: time-kill raw counts, Samples 1-3. How it is done: Time-dependent killing experiments were performed as previously. S. aureus ATCC 700699 VISA cells were inoculated to MHBII agar plates and grown overnight at 37 °C. Next, 3 independent stationer-phase starter cultures were grown at 37 °C, 250 rpm overnight, in 3 × 1 mL MHBII broth. Next, 100-fold diluted cultures were prepared from each in 20 mL fresh MHBII medium and grown at 37 °C, 250 rpm until early exponential phase (OD600 = 0.3–0.4; i.e., 5 × 10^5 cells/mL). […] Cells were treated with antibiotics in Erlenmeyer flasks at 37 °C, 150 rpm for 48 hours. […] Next, 50 μL from each dilution were plated on MHBII agar plates, and plates were incubated overnight at 37 °C to calculate CFU per mL.

Experiment [4] concerns S. aureus VISA ATCC 700699 GyrB / ParE mutants. The experiment in a line: MIC of spontaneous resistant mutants (single-step and second-step). The class given is cell-based. The settings on record: Staphylococcus aureus. How it is done: MICs were determined using a standard serial broth microdilution technique according to the CLSI guidelines. Briefly, bacterial strains were inoculated onto MHBII agar plates and were grown overnight at 37 °C. Next, 3 individual colonies from each strain were inoculated into 1 mL MHBII medium and propagated at 37 °C, 250 rpm overnight. In the cases of Enterococcus and Streptococcus sp., cells were plated to BHI agar plates, and BHI broth was used to determine MICs. […] Following dilutions, each well was seeded with 5×10^4 bacterial cells. All measurements were performed in 3 parallel replicates and to avoid possible edge effects in microwell plates, side rows (A and H) were filled with sterile medium. Following inoculations, plates were covered with lids and wrapped in polyethylene plastic bags to minimize evaporation but allow for O2 transfer. Plates were incubated at 37 °C under continuous shaking at 150 rpm for 18 hours. After incubation, OD600 of each well was measured using a BioTek Synergy 2 microplate reader.

Experiment [5] concerns S. aureus ATCC 700699 (VISA). Nature of the experiment: microbe, parasite or virus in culture. The class given is cell-based. As to conditions: Staphylococcus aureus, read-out: MIC in adapted strains. How it is done: Adaptive laboratory evolution experiments followed an established protocol for automated laboratory evolution and aimed to maximize the drug-resistance increment during a fixed time period. […] Experiments were conducted in 96-well plates, in MHBII medium, by utilizing a checkerboard layout to minimize and monitor cross-contamination. These 96-well deep-well plates (0.5 mL, polypropylene, V-bottom) were covered with sandwich covers (Enzyscreen BV) to ensure an optimal oxygen exchange rate and limit evaporation and were shaken at 150 rpm, 37 °C. […] Following cell transfer, each culture was allowed to grow for 48 hours. At each transfer, cell growth was monitored by measuring the OD600 in a BioTek Synergy 2 plate reader. […] Accordingly, only 1 of the 4 populations was retained for each independently evolving strain. This protocol was designed to avoid population extinction and to ensure that populations with the highest level of resistance are propagated further during adaptive evolution. […] Adaptation of populations was terminated after 20 transfers, i.e., 40 days. Following adaptation, cells from each final population were spread onto MHBII agar plates, and individual colonies were isolated. Next, one colony from each adapted line were subjected to capillary sequencing of gyrB and parE to assess their genotype.

The target of the next experiment is Topoisomerase IV. As to conditions: high-throughput relaxation assay ref 37; cited from earlier work.

Several values for one entry are separate records, joined by “and”; a condition that tells them apart may be missing. Identical values can stand only once. Like-named read-outs stand apart in the source and are kept apart here.

T1 sequence (P0C1S7 whole entry): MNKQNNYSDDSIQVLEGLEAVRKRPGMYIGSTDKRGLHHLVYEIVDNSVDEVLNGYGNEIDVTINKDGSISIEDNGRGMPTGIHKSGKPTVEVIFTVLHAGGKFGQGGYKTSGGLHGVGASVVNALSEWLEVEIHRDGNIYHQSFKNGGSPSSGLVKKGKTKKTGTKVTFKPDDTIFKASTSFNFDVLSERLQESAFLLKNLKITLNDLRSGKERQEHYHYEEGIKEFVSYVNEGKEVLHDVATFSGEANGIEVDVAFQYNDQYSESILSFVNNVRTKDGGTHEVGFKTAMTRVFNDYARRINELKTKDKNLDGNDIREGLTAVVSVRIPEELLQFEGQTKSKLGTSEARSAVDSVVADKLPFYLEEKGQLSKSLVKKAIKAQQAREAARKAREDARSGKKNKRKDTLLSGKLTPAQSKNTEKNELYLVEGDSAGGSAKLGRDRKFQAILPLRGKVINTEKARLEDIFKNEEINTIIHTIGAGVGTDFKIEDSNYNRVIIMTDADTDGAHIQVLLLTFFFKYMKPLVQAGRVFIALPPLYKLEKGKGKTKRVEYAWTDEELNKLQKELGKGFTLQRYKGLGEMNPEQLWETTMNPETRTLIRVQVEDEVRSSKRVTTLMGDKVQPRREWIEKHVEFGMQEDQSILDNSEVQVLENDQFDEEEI
T1 sequence (P0C1U9 whole entry, further chain): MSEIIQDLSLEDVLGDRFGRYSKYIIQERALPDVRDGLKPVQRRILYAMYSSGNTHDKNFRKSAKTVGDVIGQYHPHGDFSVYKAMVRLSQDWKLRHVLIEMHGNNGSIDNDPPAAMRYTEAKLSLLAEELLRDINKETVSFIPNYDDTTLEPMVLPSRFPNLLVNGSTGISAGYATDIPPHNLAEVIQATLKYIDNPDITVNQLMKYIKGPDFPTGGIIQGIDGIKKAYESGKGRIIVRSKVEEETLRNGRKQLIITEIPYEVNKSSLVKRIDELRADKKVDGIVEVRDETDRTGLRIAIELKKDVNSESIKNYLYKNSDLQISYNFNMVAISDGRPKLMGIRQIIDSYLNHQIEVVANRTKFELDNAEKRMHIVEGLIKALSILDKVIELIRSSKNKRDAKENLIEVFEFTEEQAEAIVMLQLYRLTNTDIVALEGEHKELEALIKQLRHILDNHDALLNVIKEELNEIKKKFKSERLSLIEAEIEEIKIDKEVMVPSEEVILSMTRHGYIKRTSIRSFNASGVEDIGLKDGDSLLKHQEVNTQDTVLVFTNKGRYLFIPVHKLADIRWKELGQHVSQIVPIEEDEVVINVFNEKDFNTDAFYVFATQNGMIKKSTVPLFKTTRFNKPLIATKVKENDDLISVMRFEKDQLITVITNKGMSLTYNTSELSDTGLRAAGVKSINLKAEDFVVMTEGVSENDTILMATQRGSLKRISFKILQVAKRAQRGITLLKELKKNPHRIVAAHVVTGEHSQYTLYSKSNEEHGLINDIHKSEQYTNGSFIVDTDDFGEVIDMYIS

Regarding `O=c1ccc2ncc(=O)n3c2n1C[C@H]3CN1CCC(NCc2cc3c(cn2)OCCC3)CC1` [Gepotidacin], in experiment [1], the “increment in resistance level by combination of 2 specific target mutations” value is given as 2,000 fold and the “resistance level (MIC) of double target mutant” value was 256 µg/mL.
`CO[C@@H]1[C@@H](OC(N)=O)[C@@H](O)[C@H](Oc2ccc3c(O)c(NC(=O)c4ccc(O)c(CC=C(C)C)c4)c(=O)oc3c2C)OC1(C)C` [Novobiocin] registered an IC50 in experiment [2] of 2 µM. Besides, the Time-kill bacterial count in experiment [3] (time 0 hour) is 2.80E+05; in experiment [3] (time 3 hour), 9.90E+04; in experiment [3] (time 6 hour), 4.70E+04; in experiment [3] (time 12 hour), 5.80E+03; in experiment [3] (time 18 hour) it was 1.50E+03; in experiment [3] (time 24 hour), 8.00E+02. For the same compound, in experiment [3] (time 48 hour), the Time-kill bacterial count stood at 6.40E+02. In addition, the Colony numbers in experiment [3] (time 0 h, Dilution 100) is 145 and 132 and 137; in experiment [3] (time 3 h, Dilution 100), 63 and 38 and 48; in experiment [3] (time 6 h, Dilution 100) it was 21 and 29; in experiment [3] (time 12 h, Dilution 10) it was 33 and 23 and 31; in experiment [3] (time 18 h, Dilution 1), 81 and 65 and 84. The MIC was determined as 0.032 µg/mL in experiment [4] (VISA GyrB I175T); 4 µg/mL in experiment [4] (VISA GyrB R144G); 8 µg/mL in experiment [4] (VISA GyrB R144I); 0.05 µg/mL in experiment [4] (VISA wt, read-out: MIC); 16 µg/mL in experiment [5].
`O=C(O)C(=O)Nc1ccc2nc(NC(=O)c3cc(Br)c(Br)[nH]3)sc2c1` [ULD0]: at Topoisomerase IV, the half-inhibitory concentration (IC50) was 10 ± 2 µM.

The term IC50 denotes the point on the concentration scale where inhibition reaches its midpoint.
